According to patent US6608106B2 (Sloan-Kettering Institute for Cancer Research, priority 1997, dated 2003):
Like-named read-outs stand apart in the source and are kept apart here.

How the values were obtained:
[1] = rat
GLUT1 [2] = biological target: T1, GLUT1 (Homo sapiens, UniProt P11166); details: in vitro data; cited from earlier work
T1 sequence (P11166 1-492): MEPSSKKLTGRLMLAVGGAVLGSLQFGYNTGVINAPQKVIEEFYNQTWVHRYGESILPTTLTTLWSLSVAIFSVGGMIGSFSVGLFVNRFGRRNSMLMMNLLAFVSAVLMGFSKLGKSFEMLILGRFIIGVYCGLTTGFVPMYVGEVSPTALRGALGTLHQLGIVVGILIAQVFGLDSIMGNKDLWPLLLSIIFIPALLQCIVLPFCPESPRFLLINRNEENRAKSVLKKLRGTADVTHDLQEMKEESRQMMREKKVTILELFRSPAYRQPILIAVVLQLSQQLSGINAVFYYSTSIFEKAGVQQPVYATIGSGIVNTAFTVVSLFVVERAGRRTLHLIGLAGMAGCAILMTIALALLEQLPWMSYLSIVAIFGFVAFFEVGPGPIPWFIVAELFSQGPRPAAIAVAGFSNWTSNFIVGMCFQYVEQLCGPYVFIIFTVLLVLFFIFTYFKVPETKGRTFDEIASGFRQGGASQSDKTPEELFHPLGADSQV

HL60 cells = details: read-out: apparent Km for transport; cited from earlier work
GLUT1 [3] = biological target: T2, GLUT1 (Mus musculus, UniProt P17809); details: dose-dependent, 30-second time course, mice
T2 sequence (P17809 1-492): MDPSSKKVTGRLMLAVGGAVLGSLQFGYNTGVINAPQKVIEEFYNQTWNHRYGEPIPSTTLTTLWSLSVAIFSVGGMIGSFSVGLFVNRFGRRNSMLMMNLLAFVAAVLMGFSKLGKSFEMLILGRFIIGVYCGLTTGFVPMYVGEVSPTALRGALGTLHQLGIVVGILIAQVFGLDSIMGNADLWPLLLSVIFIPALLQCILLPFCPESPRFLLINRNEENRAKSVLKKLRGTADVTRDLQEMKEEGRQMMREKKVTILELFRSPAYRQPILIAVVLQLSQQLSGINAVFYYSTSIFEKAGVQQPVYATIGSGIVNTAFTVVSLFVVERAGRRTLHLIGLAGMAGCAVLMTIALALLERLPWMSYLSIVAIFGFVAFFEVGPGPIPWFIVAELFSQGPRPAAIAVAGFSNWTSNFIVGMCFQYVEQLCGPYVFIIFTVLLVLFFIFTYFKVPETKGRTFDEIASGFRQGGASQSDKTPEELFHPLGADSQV

[4] = tested on: murine stroke (right middle cerebral artery occlusion); experiment: Non-reperfused stroke: permanent (24 h) right middle cerebral artery occlusion; assay type: in vivo, C57/6J BL mice; details: 250 mg/kg
Method: (§1) Dithiothreitol (0.1 mmol/L) was then added separately to both DHA and ascorbate prior to use as a reducing agent. For experiments examining the effect of focal cerebal ischemia on the DHA's ability to: (1) cross the blood-brain barrier and, (2) protect cerebral tissue, we employed an intraluminal murine model of reversible (45 minutes) or permanent (24 h) right middle cerebral artery occlusion. (12) Anesthetized normothermic C57/6J BL mice were treated prior to ischemia via penile injection with either high dose DHA (250 mg/kg), low dose DHA (40 mg/kg), ascorbate (250 mg/kg), or sucrose (a non-metabolized, non-transportable marker of plasma volume). All animals underwent transcranial laser doppler measurement of cortical cerebral blood flow perioperatively. […] (11) In contrast, the experimental cohorts were followed for 24 hours and underwent pre-sacrifice neurological examination, as previously described. 13 Infarct volumes were calculated by digital analysis of serial, 2,3,5-triphenyltetrazolium-stained, sections, with volumes expressed as percentage of the ipsilateral hemisphere.^12 There were 67 animals in the reperfusion cohort (including vehicle, 40 mg/kg DHA, 250 mg/kg DHA, and 250 mg/kg ascorbate cohorts) and 54 animals in the nonreperfused cohort (including vehicle, 250 mg/kg DHA, and 250 mg/kg ascorbate cohorts). Comparisons were made between groups with a two-tailed Student t-test for unpaired variable. All studies were performed in accordance with an institutionally approved animal protocol.
Since clinical therapeutic antioxidant strategies might be employed prior to hospitalization and reperfusion, we examined the effect of high-dose DHA on non-reperfused stroke as well. […] This improved perfusion was associated with similar reductions in infarct volume (51±6% vehicle, 46±6% AA, and 26±5% high-DHA, p<0.01 vs. vehicle), and sacrifice neurological deficit scores (3.0±0.3% vehicle, 3.2±0.4% AA, and 1.9±0.2% high-DHA; p<0.005 for DHA vs. either control). As in the setting of reperfusion, DHA reduced mortality by nearly 50% (50% vehicle, 64% AA, and 30% high-DHA.

[5] = Tracer studies of brain accumulation in focal cerebral ischemia; assay type: in vivo, C57/6J BL mice; details: ischemic animals, 10 minutes or two hours of focal ischemia
Method: as §1

[6] = mouse, in vivo; for serum radioactivity concentration: 15 seconds
[7] = 60 mg daily, human volunteers; cited from earlier work
[8] = tested on: murine stroke (right middle cerebral artery occlusion); experiment: Reperfused stroke: reversible (45 minutes) right middle cerebral artery occlusion; assay type: in vivo, C57/6J BL mice; details: for cerebral infarct volume (percentage of the ipsilateral hemisphere): 24 hours
Method: as §1

[9] = in vivo
[10] = previous studies (11); cited from earlier work
[11] = cited from earlier work
[12] = Carotid artery infusion of dehydroascorbic acid: loading of vitamin C into the brain; assay type: in vivo; details: 24 mg into carotid artery over forty minutes, rat
Method: An experiment was done in which the carotid artery of a subject rat was cannulated with a catheter and 24 mg of dehydroascorbic acid was injected into the artery. The injected dehydroascorbic acid was spiked with a tracer amount of radioactive (^14C-labeled) dehydroascorbic acid. The dehydroascorbic acid was infused over forty minutes and the brain was harvested. The amount of radioactive vitamin C was quantitated in the brain and total amount of injected vitamin C that accumulated in the brain was thus extrapolated. […] It is of note that the total vitamin C concentration in the normal adult rat brain is approximately 150 μg. A log-fold greater Vitamin C than baseline normal concentration of Vitamin C was thus achieved.

[13] = low dose 40 mg/kg pre-treatment

| SMILES | inhibition of uptake of dehydroascorbic acid in the brain (GLUT1 [3]) | calculated BBB permeability-surface area product (PS) [1] [μl/min/gm brain tissue] | Km (HL60 cells) [µM] | infarct volume [4] [%] | mortality [4] [%] | pre-sacrifice regional cerebral cortical perfusion [4] [%] | accumulation, percent of injected dose (TD) per gram of brain tissue [5] | maximum brain accumulation ([6]; Balb/c, iv) [% ID/gram brain tissue] | serum radioactivity concentration ([6]; Balb/c, iv) [% ID/gram serum] | neurological deficit score ([8]; 250 mg/kg pre-treatment) | overall mortality ([8]; 250 mg/kg pre-treatment) [%] | post-ischemic cerebral perfusion ([8]; 250 mg/kg pre-treatment) [%] | cerebral infarct volume (percentage of the ipsilateral hemisphere) ([8]; 250 mg/kg pre-treatment) [%] | radioactivity found in the brain, percent of injected dose (ID) per gram of brain tissue [9] | also measured |
| --- | --- | --- | --- | --- | --- | --- | --- | --- | --- | --- | --- | --- | --- | --- | --- |
| O=CC[C@@H](O)[C@H](O)[C@H](O)CO [D-deoxyglucose, 2-Deoxy-D-glucose, reference compound] |  | 44±3.2 | 2500 |  |  |  |  |  |  |  |  |  |  |  | concentration necessary to block the transport of dehydroascorbic acid through GLUT1 (GLUT1 [2]): greater than 50 mM |
| O=C1O[C@H]([C@@H](O)CO)C(O)=C1O [ascorbic acid, L-[1-^14C]-ascorbic acid, reference compound] |  |  |  | 46±6 | 64 | 15±3 | only trace levels | 0.4 | 27 | 2.7±0.7 | 50 | 13±1 | 58±4 | only trace radioactivity | brain radioactivity ([6]; Balb/c, iv, 2 hours): 1.1 % ID/gram brain tissue; transport into the brain [6]: no measurable transport; steady-state plasma concentration [7]: approximately 24 μM |
| O=C1O[C@H]([C@@H](O)CO)C(=O)C1=O [dehydroascorbic acid] |  | 136±12 | 850 | 26±5 | 30 | 30±3 | ~4% |  | 8 | 1.9±0.2 | 27 | 40±4 | 12±4 |  | reduction of mortality ([4]; vs. controls): ~50%; form of vitamin C accumulating in the brains of DHA-injected animals that is ascorbic acid [10]: > 85%; brain radioactivity, maximum ([6]; Balb/c, iv): 4.3 % of ID/gram brain tissue; brain radioactivity ([6]; Balb/c, iv, 25 min): 3.3%; stability ([11]; aqueous solution): hydrolyses easily; stability ([11]; low pH conditions): stable; neurological deficit score [8, 13]: 1.6±0.2; overall mortality [8, 13]: 24%; post-ischemic cerebral perfusion [8, 13]: 28±2%; cerebral infarct volume (percentage of the ipsilateral hemisphere) [8, 13]: 22±4%; radioactivity found in the brain, percent of injected dose (ID) per gram of brain tissue ([9]; Balb/c (mouse), Fischer F344 (rat), mouse and rat, 3 min): Approximately 4%; amount of vitamin C accumulated in the brain [12]: 2.6 mg; vitamin C accumulated in the brain as share of injected dose [12]: approximately 11% |
| OC[C@H]1O[C@@](CO)(O[C@H]2O[C@H](CO)[C@@H](O)[C@H](O)[C@H]2O)[C@@H](O)[C@@H]1O [sucrose, [fructose-1-^3H]-sucrose] |  |  |  |  |  |  | only trace levels | 0.4 |  |  |  |  |  | only trace radioactivity | brain radioactivity ([6]; Balb/c, iv, 15 min): < 0.1% |

Second part, led by results:

| inhibition of uptake of dehydroascorbic acid in the brain (GLUT1 [3]) | SMILES | calculated BBB permeability-surface area product (PS) [1] [μl/min/gm brain tissue] | Km (HL60 cells) [µM] | infarct volume [4] [%] | mortality [4] [%] | pre-sacrifice regional cerebral cortical perfusion [4] [%] | accumulation, percent of injected dose (TD) per gram of brain tissue [5] | maximum brain accumulation ([6]; Balb/c, iv) [% ID/gram brain tissue] | serum radioactivity concentration ([6]; Balb/c, iv) [% ID/gram serum] | neurological deficit score ([8]; 250 mg/kg pre-treatment) | overall mortality ([8]; 250 mg/kg pre-treatment) [%] | post-ischemic cerebral perfusion ([8]; 250 mg/kg pre-treatment) [%] | cerebral infarct volume (percentage of the ipsilateral hemisphere) ([8]; 250 mg/kg pre-treatment) [%] | radioactivity found in the brain, percent of injected dose (ID) per gram of brain tissue [9] | also measured |
| --- | --- | --- | --- | --- | --- | --- | --- | --- | --- | --- | --- | --- | --- | --- | --- |
| no effect | O=C[C@@H](O)[C@H](O)[C@@H](O)[C@@H](O)CO [L-glucose] |  |  |  |  |  |  |  |  |  |  |  |  |  |  |
| no effect | CC(C)C[C@H](N)C(=O)O [leucine] |  |  |  |  |  |  |  |  |  |  |  |  |  |  |
